The test system of data set [1] is SR. Put plainly: cells. The conditions noted are these: Homo sapiens, 96 h, time 4 day, read-out: GI. The format is functional.
Description: Growth inhibition of human SR cells at 10 uM incubated for 4 days by MTT assay relative to control
Data set [2] concerns HOP-92. Put plainly: cells. The format is functional. The conditions noted are these: Homo sapiens, HOP-92, 96 h, time 4 day, read-out: GI.
Description: Growth inhibition of human HOP-92 cells at 10 uM incubated for 4 days by MTT assay relative to control
Data set [3] relates to RXF 393. Put plainly: cells. It is filed as functional. The settings on record: Homo sapiens, RXF 393, 96 h, time 4 day, read-out: GI.
Description: Growth inhibition of human RXF 393 cells at 10 uM incubated for 4 days by MTT assay relative to control
Data set [4] deals with HCT-116. The data set is described as follows: cells. It is filed as functional. The settings on record: Homo sapiens, HCT-116, 96 h, time 4 day, read-out: GI.
Description: Growth inhibition of human HCT-116 cells at 10 uM incubated for 4 days by MTT assay relative to control
For data set [5], the target named is Hepatocyte growth factor receptor (Homo sapiens, UniProt P08581). Put plainly: Inhibition of c-Met (unknown origin).
Data set [6] deals with SR. The data set is described as follows: Cytotoxicity against human SR cells assessed as cell growth inhibition incubated for 4 days by MTT assay. The format is functional. The conditions noted are these: 96 h, time 4 day.
Data set [7] can be described thus: Cytotoxicity against human PCS-800-011 cells assessed as cell growth inhibition incubated for 4 days by MTT assay.
In data set [8] the test system is HOP-92. The data set is described as follows: Cytotoxicity against human HOP-92 cells assessed as cell growth inhibition incubated for 4 days by MTT assay. The format is functional. The settings on record: HOP-92, 96 h, time 4 day. On the technique in general: Formazan colour is commonly taken as a measure of viable cells.
Data set [9] is described as follows: Cytotoxicity against human MRC5 cells assessed as cell growth inhibition incubated for 4 days by MTT assay.
For data set [10], the system named is RXF 393. Put plainly: Cytotoxicity against human RXF 393 cells assessed as cell growth inhibition incubated for 4 days by MTT assay. The format is functional. The conditions noted are these: RXF 393, 96 h, time 4 day.
Data set [11] can be described thus: Cytotoxicity against human HEK293 cells assessed as cell growth inhibition incubated for 4 days by MTT assay.
Data set [12] deals with HCT-116. Put plainly: Cytotoxicity against human HCT-116 cells assessed as cell growth inhibition incubated for 4 days by MTT assay. It is filed as functional. The conditions noted are these: HCT-116, 96 h, time 4 day.
Data set [13] in a line: Cytotoxicity against human FHC cells assessed as cell growth inhibition incubated for 4 days by MTT assay.
A short description of data set [14]: Selectivity index, ratio of GI50 for cytotoxicity against human PCS-800-011 cells to GI50 for cytotoxicity against human SR cells. The conditions noted are these: PCS-800-011 cells versus SR cells, read-out: RatioGI50. The format is toxicity, cell-based.
Data set [15] in a line: Selectivity index, ratio of GI50 for cytotoxicity against human MRC5 cells to GI50 for cytotoxicity against human HOP-92 cells.
Data set [16] is described as follows: Selectivity index, ratio of GI50 for cytotoxicity against human HEK293 cells to GI50 for cytotoxicity against human RXF 393 cells.
Data set [17] is described as follows: Selectivity index, ratio of GI50 for cytotoxicity against human FHC cells to GI50 for cytotoxicity against human HCT-116 cells. It is filed as toxicity, cell-based. The conditions noted are these: FHC cells versus HCT-116 cells, read-out: RatioGI50.
A short description of data set [18]: Cytotoxicity against human PCS-800-011 cells assessed as fold change in cell growth inhibition incubated for 4 days by MTT assay. It is filed as toxicity, cell-based. The settings on record: pcs-800-011, 96 h, time 4 day.

`COc1cc(-c2cc(-c3c[nH]c4ccccc34)[nH]c(=O)c2C#N)ccc1O`: the inhibition of growth at 10 µM in [1] came to 52.1%; in data set [2], 53.5%; in data set [3] it was 65%; in [4], 64.4%.
In the same order, the values of `N#Cc1c(-c2cccc([N+](=O)[O-])c2)cc(-c2c[nH]c3ccccc23)[nH]c1=O` are 18.1%, 9.93%, 16.9% and 6.36%.
With `N#Cc1c(-c2cccnc2)cc(-c2c[nH]c3ccccc23)[nH]c1=O`, the inhibition of growth at 10 µM in [1] is 13.2%; in [2], 13%; in data set [3] it was -0.69%; in data set [4], 9.94%.
With `N#Cc1c(-c2ccc(C(F)(F)F)cc2)cc(-c2c[nH]c3ccccc23)[nH]c1=O`, the inhibition of growth at 10 µM in data set [1] was 48.5%; in [2] it was 56.7%; in data set [3], 71.6%; in [4], 67.5%.
By IC50 is commonly meant the midpoint of a concentration-inhibition curve. Low readings indicate greater potency in that assay, high ones weaker potency in that assay. The molecule `CCOc1ccn(-c2ccc(F)cc2)c(=O)c1C(=O)Nc1ccc(Oc2ccnc(N)c2Cl)c(F)c1` [BMS-777607] displayed a 50% inhibitory concentration (IC50) in [5] of 0.128 µM.
As a reminder, the GI50 is the concentration at which growth is held to half of that of the control. In the case of `N#Cc1c(-c2ccc(Cl)c(Cl)c2)cc(-c2c[nH]c3ccccc23)[nH]c1=O`, the inhibition of growth at 10 µM was found to be 71.8% in data set [1], 73.3% in [2], 75.8% in [3] and 76.5% in data set [4]. Also, the concentration for 50% growth inhibition (GI50) in data set [6] is 9.17 µM; in data set [8], 3.44 µM; in [10], 16.6 µM; in data set [12] it was 10.6 µM. In addition, the concentration for 50% growth inhibition (GI50) at 96 h in [7] turned out to be 73.6 µM; in data set [9] it was 56.1 µM; in [11], 42.6 µM; in [13], 41 µM. In addition, the selectivity ratio was 8.02 in data set [14] and 3.86 in data set [17]. The results for the RatioGI50 in data set [15] and in data set [16] were 16.3 and 2.56, respectively. Besides, the “fold change (FC)” value in [18] is recorded as 3.5.
In the case of `N#Cc1c(-c2ccc(O)c(O)c2)cc(-c2c[nH]c3ccccc23)[nH]c1=O`, the inhibition of growth at 10 µM in data set [1] worked out at 69.8%; in data set [2], 31.2%; in data set [3], 11%; in data set [4] it was 9.54%.
In the same order, the values of `N#Cc1c(-c2ccc(F)c(F)c2)cc(-c2c[nH]c3ccccc23)[nH]c1=O` are 55.9%, 53.1%, 65.7% and 51%.
The corresponding values for `N#Cc1c(-c2ccccc2[N+](=O)[O-])cc(-c2c[nH]c3ccccc23)[nH]c1=O` are 69%, 68.5%, 64.8% and 59.5%.
On to `N#Cc1c(-c2cccc(Cl)c2Cl)cc(-c2c[nH]c3ccccc23)[nH]c1=O`, for which the inhibition of growth at 10 µM in data set [1] came out at 57.6%; in [2], 77.8%; in [3] it was 63.2%; in [4] it was 81.7%. For the same molecule, the GI50 in data set [6] was 22.3 µM; in [8] it was 15.4 µM; in [10], 16.1 µM; in data set [12] it was 8.12 µM. For the same molecule, the concentration for 50% growth inhibition (GI50) at 96 h in data set [7] worked out at 83.4 µM; in [9], 71.3 µM; in data set [11], 61 µM; in [13], 65.7 µM. For the same molecule, the selectivity ratio was determined as 3.74 in data set [14] and 8.09 in data set [17]. In addition, the results for the RatioGI50 in data set [15] and in [16] were 4.62 and 3.8, respectively. Moreover, the “fold change (FC)” value in [18] worked out at 4.
In the case of `N#Cc1c(-c2cccc(Cl)c2)cc(-c2c[nH]c3ccccc23)[nH]c1=O`, the inhibition of growth at 10 µM in [1] stood at 71.9%; in data set [2] it was 38.6%; in [3], 67.5%; in [4] it was 51.1%.
In the same order, the values of `N#Cc1c(-c2ccccc2Cl)cc(-c2c[nH]c3ccccc23)[nH]c1=O` are 90%, 55.1%, 51.3% and 47.6%.
Consider `CN[C@@H]1C[C@H]2O[C@@](C)([C@@H]1OC)n1c3ccccc3c3c4c(c5c6ccccc6n2c5c31)C(=O)NC4` [STAUROSPORINE], for which the GI50 in data set [10] came to 0.95 µM.

For the origin of these results see ChEMBL document CHEMBL5625197, “The mystery of titan hunter: Rationalized striking of the MAPK pathway via Newly synthesized 6-Indolylpyridone-3-Carbonitrile derivatives” (Eur J Med Chem, 2023).
